According to the NIST ThermoML archive (doi:10.1016/j.jct.2013.04.010):
Values joined by “and” are separate entries in the source; they are usually repeats but may differ in a detail not shown here. Equal entries are not always repeated. Numbers after ± are expanded uncertainties.

Conditions: Liquid, Other PVT measurement

CCCCC(CC)COC(=O)c1ccccc1C(=O)OCC(CC)CCCC (stereo not given) [bis(2-ethylhexyl) 1,2-benzenedicarboxylate]
Conditions | mass density
373.29 K, 3800 kPa | 921 ± 6 kg/m3
373.29 K, 7600 kPa | 924 ± 7 kg/m3
373.29 K, 12200 kPa | 928 ± 7 kg/m3
373.29 K, 15900 kPa | 931 ± 7 kg/m3
373.29 K, 18100 kPa | 933 ± 7 kg/m3
373.29 K, 22300 kPa | 936 ± 7 kg/m3
373.29 K, 28300 kPa | 940 ± 7 kg/m3
373.29 K, 34800 kPa | 945 ± 7 kg/m3
373.29 K, 42200 kPa | 950 ± 7 kg/m3
373.29 K, 48900 kPa | 954 ± 7 kg/m3
373.29 K, 56100 kPa | 959 ± 7 kg/m3
373.29 K, 69500 kPa | 967 ± 7 kg/m3
373.29 K, 83700 kPa | 974 ± 7 kg/m3
373.29 K, 104200 kPa | 984 ± 7 kg/m3
373.29 K, 125400 kPa | 994 ± 7 kg/m3
373.29 K, 138900 kPa | 1001 ± 7 kg/m3
373.29 K, 152900 kPa | 1007 ± 7 kg/m3
373.29 K, 174400 kPa | 1015 ± 7 kg/m3
373.29 K, 208300 kPa | 1029 ± 7 kg/m3
373.29 K, 240000 kPa | 1041 ± 7 kg/m3
373.29 K, 262100 kPa | 1046 ± 7 kg/m3
423.53 K, 4200 kPa | 878 ± 6 kg/m3
423.53 K, 7900 kPa | 885 ± 6 kg/m3
423.53 K, 11100 kPa | 890 ± 6 kg/m3
423.53 K, 14500 kPa | 895 ± 6 kg/m3
423.53 K, 18000 kPa | 898 ± 6 kg/m3
423.53 K, 21200 kPa | 901 ± 6 kg/m3
423.53 K, 27800 kPa | 908 ± 6 kg/m3
423.53 K, 35200 kPa | 914 ± 6 kg/m3
423.53 K, 42100 kPa | 918 ± 6 kg/m3
423.53 K, 49200 kPa | 924 ± 7 kg/m3
423.53 K, 55700 kPa | 930 ± 7 kg/m3
423.53 K, 70700 kPa | 939 ± 7 kg/m3
423.53 K, 83700 kPa | 948 ± 7 kg/m3
423.53 K, 104200 kPa | 960 ± 7 kg/m3
423.53 K, 125400 kPa | 970 ± 7 kg/m3
423.53 K, 139900 kPa | 977 ± 7 kg/m3
423.53 K, 153700 kPa | 983 ± 7 kg/m3
423.53 K, 173400 kPa | 992 ± 7 kg/m3
423.53 K, 207100 kPa | 1006 ± 7 kg/m3
423.53 K, 239400 kPa | 1018 ± 7 kg/m3
423.53 K, 263800 kPa | 1028 ± 7 kg/m3
476.2 K, 5500 kPa | 847 ± 6 kg/m3
476.2 K, 9400 kPa | 853 ± 6 kg/m3
476.2 K, 9500 kPa | 853 ± 6 kg/m3
476.2 K, 15200 kPa | 861 ± 6 kg/m3
476.2 K, 15700 kPa | 861 ± 6 kg/m3
476.2 K, 26800 kPa | 874 ± 6 kg/m3
476.2 K, 27300 kPa | 874 ± 6 kg/m3
476.2 K, 27500 kPa | 874 ± 6 kg/m3
476.2 K, 46700 kPa | 894 ± 6 kg/m3
476.2 K, 46900 kPa | 894 ± 6 kg/m3
476.2 K, 59800 kPa | 905 ± 6 kg/m3
476.2 K, 70700 kPa | 914 ± 7 kg/m3
476.2 K, 71500 kPa | 913 ± 7 kg/m3
476.2 K, 95700 kPa | 931 ± 7 kg/m3
476.2 K, 96400 kPa | 931 ± 7 kg/m3
476.2 K, 114200 kPa | 942 ± 7 kg/m3
476.2 K, 114800 kPa | 942 ± 7 kg/m3
476.2 K, 139800 kPa | 959 ± 7 kg/m3
476.2 K, 140400 kPa | 958 ± 7 kg/m3
476.2 K, 176200 kPa | 975 ± 7 kg/m3
476.2 K, 206900 kPa | 990 ± 7 kg/m3
476.2 K, 240200 kPa | 1002 ± 7 kg/m3
476.2 K, 269000 kPa | 1013 ± 7 kg/m3
491.86 K, 3900 kPa | 830 ± 6 kg/m3 and 831 ± 6 kg/m3
491.86 K, 4100 kPa | 830 ± 6 kg/m3
491.86 K, 9900 kPa | 840 ± 6 kg/m3
491.86 K, 10500 kPa | 839 ± 6 kg/m3
491.86 K, 22800 kPa | 856 ± 6 kg/m3
491.86 K, 23300 kPa | 856 ± 6 kg/m3
491.86 K, 37200 kPa | 870 ± 6 kg/m3
491.86 K, 37500 kPa | 870 ± 6 kg/m3
491.86 K, 50700 kPa | 886 ± 6 kg/m3
491.86 K, 51100 kPa | 885 ± 6 kg/m3
491.86 K, 71500 kPa | 902 ± 6 kg/m3
491.86 K, 71900 kPa | 902 ± 6 kg/m3
491.86 K, 94800 kPa | 918 ± 6 kg/m3
491.86 K, 95000 kPa | 918 ± 6 kg/m3
491.86 K, 121700 kPa | 934 ± 7 kg/m3
491.86 K, 121800 kPa | 934 ± 7 kg/m3
491.86 K, 145400 kPa | 948 ± 7 kg/m3
491.86 K, 145600 kPa | 948 ± 7 kg/m3
491.86 K, 177200 kPa | 964 ± 7 kg/m3
491.86 K, 177400 kPa | 964 ± 7 kg/m3
491.86 K, 204300 kPa | 977 ± 7 kg/m3
491.86 K, 206000 kPa | 978 ± 7 kg/m3
491.86 K, 229400 kPa | 989 ± 7 kg/m3
491.86 K, 230800 kPa | 988 ± 7 kg/m3
491.86 K, 253700 kPa | 998 ± 7 kg/m3
491.86 K, 258100 kPa | 1000 ± 7 kg/m3
523.6 K, 5700 kPa | 811 ± 6 kg/m3
523.6 K, 9200 kPa | 817 ± 6 kg/m3
523.6 K, 16100 kPa | 827 ± 6 kg/m3
523.6 K, 21600 kPa | 835 ± 6 kg/m3
523.6 K, 27300 kPa | 842 ± 6 kg/m3
523.6 K, 27500 kPa | 842 ± 6 kg/m3
523.6 K, 35500 kPa | 851 ± 6 kg/m3
523.6 K, 35700 kPa | 851 ± 6 kg/m3
523.6 K, 44200 kPa | 860 ± 6 kg/m3
523.6 K, 44300 kPa | 860 ± 6 kg/m3
523.6 K, 44400 kPa | 860 ± 6 kg/m3
523.6 K, 44600 kPa | 860 ± 6 kg/m3
523.6 K, 55800 kPa | 871 ± 6 kg/m3
523.6 K, 56300 kPa | 871 ± 6 kg/m3
523.6 K, 68500 kPa | 882 ± 6 kg/m3
523.6 K, 68900 kPa | 882 ± 6 kg/m3
523.6 K, 82200 kPa | 893 ± 7 kg/m3
523.6 K, 82500 kPa | 892 ± 7 kg/m3
523.6 K, 97000 kPa | 903 ± 6 kg/m3
523.6 K, 97300 kPa | 903 ± 6 kg/m3
523.6 K, 117000 kPa | 916 ± 6 kg/m3
523.6 K, 117400 kPa | 916 ± 6 kg/m3
523.6 K, 117700 kPa | 916 ± 6 kg/m3
523.6 K, 155700 kPa | 939 ± 7 kg/m3
523.6 K, 156100 kPa | 939 ± 7 kg/m3
523.6 K, 181200 kPa | 952 ± 7 kg/m3
523.6 K, 181500 kPa | 952 ± 7 kg/m3
523.6 K, 209500 kPa | 964 ± 7 kg/m3
523.6 K, 209900 kPa | 964 ± 7 kg/m3
523.6 K, 233900 kPa | 974 ± 7 kg/m3
523.6 K, 234000 kPa | 974 ± 7 kg/m3
523.6 K, 253400 kPa | 983 ± 7 kg/m3
523.6 K, 253600 kPa | 983 ± 7 kg/m3
523.6 K, 263500 kPa | 987 ± 7 kg/m3
